Reference: PubChem BioAssay AID328 (DTP/NCI, 2004)
Where “and” joins values, the source holds several entries; their conditions need not be identical. Identical values can stand only once. Inconclusive results and toxic doses are left out.

System: BDF1 mice, P388 leukemia ip, median survival T/C
Test: NCI In Vivo Anticancer Drug Screen. Data for tumor model P388 Leukemia (intraperitoneal) in B6D2F1 (BDF1) mice
Settings: endpoint: median survival time, higher = longer survival
Summary of the method: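 Steps: implant the tumour, treat one group with compound and another with vehicle, record survival, then divide treated by control.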

[1] = dose: 50.0 mg/kg/injection, schedule: Q01DX009 (ip), vehicle: saline with Tween-80
[2] = dose: 100.0 mg/kg/injection, schedule: Q04DX003 (ip), vehicle: Klucel (hydroxypropylcellulose) (HPC)
[3] = dose: 200.0 mg/kg/injection, schedule: Q04DX003 (ip), vehicle: Klucel (hydroxypropylcellulose) (HPC)
[4] = dose: 400.0 mg/kg/injection, schedule: Q04DX003 (ip), vehicle: Klucel (hydroxypropylcellulose) (HPC)

Compound: NNC(=O)CCCCCCCCCCCCCCCO
- T/C [1]: 94 % of control

Compound: COC(=O)C(N)CN (stereo not given)
- T/C (dose: 175.0 mg/kg/injection, schedule: Q01DX009 (ip), vehicle: saline with Tween-80): 89 % of control

Compound: O=c1cc(-c2ccccc2)nc2c(Cl)cc(Cl)cn12
- T/C [2]: 89 % of control
- T/C [3]: 100 % of control
- T/C [4]: 96 % of control

Compound: CC(=O)C(C(c1ccccc1)C1CCCc2ccccc21)N1CCOCC1 (stereo not given)
- T/C (dose: 100.0 mg/kg/injection, schedule: Q01DX009 (ip), vehicle: Klucel (hydroxypropylcellulose) (HPC)): 100 % of control
- T/C [2]: 105 % of control
- T/C (dose: 200.0 mg/kg/injection, schedule: Q01DX009 (ip), vehicle: Klucel (hydroxypropylcellulose) (HPC)): 109 % of control
- T/C [3]: 100 % of control
- T/C (dose: 400.0 mg/kg/injection, schedule: Q01DX009 (ip), vehicle: Klucel (hydroxypropylcellulose) (HPC)): 104 % of control
- T/C [4]: 100 % of control

Compound: COc1cc(C2c3cc4c(cc3C(O)C3COC(=O)C23)OCO4)cc(O)c1OC (stereo not given)
- T/C (dose: 2.0 mg/kg/injection, schedule: Q01DX009 (ip), vehicle: saline): 120 % of control
- T/C (dose: 4.0 mg/kg/injection, schedule: Q01DX009 (ip), vehicle: saline): 105 % of control

Compound: COc1cc(NCCCC(C)N)c2ncccc2c1OC (stereo not given)
- T/C (dose: 6.25 mg/kg/injection, schedule: Q01DX009 (ip), vehicle: saline): 101 % of control
- T/C (dose: 12.5 mg/kg/injection, schedule: Q01DX009 (ip), vehicle: saline): 109 % of control
- T/C (dose: 25.0 mg/kg/injection, schedule: Q01DX009 (ip), vehicle: saline): 116 % of control

Compound: CSc1cc(C(N)=O)c2c(N)nc(SC)nc2n1
- T/C (dose: 25.0 mg/kg/injection, schedule: Q01DX001 (ip), vehicle: saline with Tween-80): 111 % of control
- T/C (dose: 50.0 mg/kg/injection, schedule: Q01DX001 (ip), vehicle: saline with Tween-80): 109 % of control
- T/C (dose: 100.0 mg/kg/injection, schedule: Q01DX001 (ip), vehicle: saline with Tween-80): 100 % of control and 111 % of control
- T/C (dose: 400.0 mg/kg/injection, schedule: Q01DX001 (ip), vehicle: saline with Tween-80): 100 % of control

Compound: Cn1c(CCCC(=O)O)nc2cc(N(CCCl)CCCl)ccc21
- T/C (dose: 1.8 mg/kg/injection, schedule: Q04DX003 (ip), vehicle: saline): 116 % of control
- T/C (dose: 2.5 mg/kg/injection, schedule: Q01DX009 (ip), vehicle: saline): 154 % of control
- T/C (dose: 4.3 mg/kg/injection, schedule: Q04DX003 (ip), vehicle: saline with Tween-80): 175 % of control
- T/C (dose: 5.0 mg/kg/injection, schedule: Q01DX009 (ip), vehicle: saline): 166 % of control
- T/C (dose: 6.5 mg/kg/injection, schedule: Q04DX003 (ip), vehicle: saline with Tween-80): 185 % of control
- T/C (dose: 9.9 mg/kg/injection, schedule: Q04DX003 (ip), vehicle: saline with Tween-80): 180 % of control
- T/C (dose: 10.0 mg/kg/injection, schedule: Q01DX009 (ip), vehicle: saline): 200 % of control
- T/C (dose: 15.0 mg/kg/injection, schedule: Q04DX003 (ip), vehicle: saline with Tween-80): 200 % of control
- T/C (dose: 22.5 mg/kg/injection, schedule: Q04DX003 (ip), vehicle: saline with Tween-80): 180 % of control

Compound: NC(=NCCCC(NC(=O)c1ccccc1)C(=O)O)NC(=O)c1ccccc1 (stereo not given)
- T/C [1]: 103 % of control
- T/C (dose: 100.0 mg/kg/injection, schedule: Q01DX009 (ip), vehicle: saline with Tween-80): 120 % of control
- T/C (dose: 200.0 mg/kg/injection, schedule: Q01DX009 (ip), vehicle: saline with Tween-80): 118 % of control

Compound: O=C(Nc1ccc2c(c1)OCO2)O/N=C\c1ccccn1
- T/C (dose: 100.0 mg/kg/injection, schedule: Q04DX003 (ip), vehicle: saline with Tween-80): 118 % of control
- T/C (dose: 200.0 mg/kg/injection, schedule: Q04DX003 (ip), vehicle: saline with Tween-80): 95 % of control
- T/C (dose: 400.0 mg/kg/injection, schedule: Q04DX003 (ip), vehicle: saline with Tween-80): 100 % of control
